US20140199380A1, “PHARMACEUTICAL COMPOSITION COMPRISING AN ALGAE ADAPTED TO INCREASE THE EFFICACY OF AN ENZYMATIC INHIBITOR” (priority 2010, published 2014)

How the values were obtained:
[1] = Plasma concentration of Tadalafil after a single dose (pharmacokinetics, FIG. 1); conditions: male, human, in vivo, 20 mg
Method: In both cases, a single dose of a pharmaceutical composition equivalent to 20 mg of tadalafil was administered to a test population of otherwise healthy subjects suffering from ED and the plasma concentration of Tadalafil was measured at intervals following the administration.

[2] = tadalafil as normally administered, typical value; cited from earlier work

In the case of CN1CC(=O)N2[C@H](c3ccc4c(c3)OCO4)c3[nH]c4ccccc4c3C[C@@H]2C1=O [Tadalafil, (6R,12aR)-6-(1,3-benzodioxol-5-yl)-2,3,6,7,12,12a-hexahydro-2-methylpyrazino[1′,2′:1,6]pyrido[3,4-b]indole-1,4-dione], the half-life [1] is given as 17.5 h and the “Half-life in the body” value [2] is given as 17.5 h.
